Experimental data from PMC7399811, “Analogues of a Cyclic Antimicrobial Peptide with a Flexible Linker Show Promising Activity against Pseudomonas aeruginosa and Staphylococcus aureus” (Antibiotics, 2020).
≈ marks a conversion by molar mass, not a printed value. Square brackets hold non-standard residues; d marks the D form. Peptide text beside a SMILES is read from it. Bip = N[C@@H](Cc1ccc(-c2ccccc2)cc1)C(=O)O; 2Nal = N[C@@H](Cc1ccc2ccccc2c1)C(=O)O; Dab = NCC[C@H](N)C(=O)O; AEEA = NCCOCCOCC(=O)O

How the values were obtained:
S. aureus ATCC 29213 = assay type: cell-based
Protocol: (§1) Bacterial strains (E. coli ATCC 29522, S. aureus ATCC 29213, A. baumannii ATCC 19606, and P. aeruginosa ATCC 27853) were grown overnight on LB agar plates at 37 °C. Overnight cultures were prepared by inoculation of two to three colonies in 10 mL non-cation adjusted Mueller–Hinton broth (MHB) media (BD BBLTM Beef extract powder, BD BactoTMCasamino acids, and DIFCO soluble starch). Bacterial inoculum for MIC testing was prepared as balanced cultures, as previously described. The bacterial suspension was adjusted using MHB to an OD600 of 0.1, approximately 1·10^8 colony forming units (CFU/mL), and then diluted 1:200 in MHB, to give a final bacterial suspension of 5·10^5 CFU/mL, as described by Wiegand et al.. […] For MIC determination, all peptides were measured in triplicates using the protocol described by Wiegand et al. for “antimicrobial peptides that require the presence of acetic acid/BSA”. In brief, 20 µL peptide solution and gentamycin solution was transferred to column 1 of 96-well plates. Next, 10 µL 0.2% BSA; 0.01% acetic acid MHB media was transferred to column 2–11. Subsequently, peptides were serially diluted two-fold in the MIC plate and 90 µL bacterial suspension was transferred to all wells in column 1–11. Next, 100 µL bacterial suspension was transferred to column 12 D–F (growth control) and 100 µL media to column 12 A–C (sterility control). After an overnight incubation at 37 °C of the MIC plates, MIC values were determined as the lowest concentration at which there was no visible bacterial growth. For the inoculum control, 10 µL of solution from a positive-growth control well from each bacterial strain was dissolved in 990 µL phosphate-buffered saline (PBS) (1:100 dilution) in an Eppendorf tube. This solution was vortexed and 100 µL transferred to another Eppendorf tube containing 900 µL PBS (1:10 dilution) and vortexed. Then, 100 µL of each dilution was spread onto the MHB media plates, in triplicates, to achieve a CFU dilution of 1:1000 and 1:10,000, respectively. The plates were incubated overnight at 37 °C. The colonies were counted and 50 colonies were expected on the 1:10,000 plates and 500 on the 1:1000 plates.

E. coli ATCC 29522 = assay type: cell-based; settings: ATCC 29522
Protocol: as §1

P. aeruginosa ATCC 27853 = assay type: cell-based
Protocol: as §1

A. baumannii ATCC 19606 = assay type: cell-based; settings: ATCC 19606
Protocol: as §1

red blood cells = settings: at 150 µM peptide; 0.5% v/v RBC in PBS, 1 h 37 °C, absorbance 414 nm, normalized to melittin (100%) and PBS (0%)
Protocol: A total of 150 µL of 5 µM melittin was added to the positive control wells 1-6H of a V-shaped 96-well polypropylene plate and left overnight. The melittin solution was removed and the positive control wells were washed 3 times with 150 µL PBS. Afterwards, a 2.5 µM melittin solution was added to the positive control wells. For the assay, 0-negative blood in EDTA was used. Blood was washed by mixing 3 mL of PBS with 1 mL of whole blood, and centrifuged for 8 min at 3000 rpm. The supernatant was discarded and 4 mL of PBS added, mixed gently, and centrifuged. This wash cycle was repeated but the last centrifuge velocity was raised to 4000 rpm. Next, 40 µL red blood cells (RBC) was suspended in 8 mL of PBS to achieve an RBC suspension of 0.5% volume/volume (v/v). Peptide solutions were prepared at 600 µM, two times the highest concentration. A total of 150 µL peptide solution was transferred to row A. Next, 75 µL PBS was transferred to wells B1 to G12, as well as H7-12 (negative control), and the peptides were serially diluted two-fold. Then, 75 µL RBC suspension was added to all wells and the plate was covered with a Microseal® film and incubated for 1 h at 37 °C. Next, the plate was centrifuged for 10 min at 4000 rpm. Subsequently, 60 µL supernatant was transferred into the corresponding wells of a clear, polystyrene, flat-bottomed 96-well ELISA plate. The absorbance was read at λ = 414 nm with a VersaMaxTM Tunable Microplate Reader and the data were evaluated on Softmax® Pro. The results were normalized with respect to the average positive (100%) and negative (0%) controls, as described previously [43].

| SMILES | Minimum inhibitory concentration SA (S. aureus ATCC 29213) | Minimum inhibitory concentration EC (E. coli ATCC 29522) | Minimum inhibitory concentration PA (P. aeruginosa ATCC 27853) | Minimum inhibitory concentration AB (A. baumannii ATCC 19606) | percent hemolytic activity against red blood cells (%H) (red blood cells) |
| --- | --- | --- | --- | --- | --- |
| N=C(N)NCCC[C@@H]1NC(=O)[C@H](CCN)NC(=O)[C@H](Cc2ccc3ccccc3c2)NC(=O)[C@H](CCN)NC(=O)[C@H](CC(N)=O)NC(=O)[C@H](CCN)NC(=O)[C@H](Cc2ccc3ccccc3c2)NC(=O)COCCOCCNC(=O)[C@H](Cc2ccc(-c3ccccc3)cc2)NC1=O [compound 12] (cyclo([Dab][2Nal][Dab]R[Bip][AEEA][2Nal][Dab]N)) | 1 µg/mL (≈ 0.75 µM) | 32 µg/mL (≈ 24 µM) | 4 µg/mL (≈ 3 µM) | 32 µg/mL (≈ 24 µM) | 98% |
| N=C(N)NCCC[C@@H]1NC(=O)[C@H](Cc2ccc3ccccc3c2)NC(=O)COCCOCCNC(=O)[C@H](Cc2ccc(-c3ccccc3)cc2)NC(=O)[C@H](CCCNC(=N)N)NC(=O)[C@H](CCCNC(=N)N)NC(=O)[C@H](Cc2ccc3ccccc3c2)NC(=O)[C@H](CCCNC(=N)N)NC(=O)[C@H](CC(N)=O)NC1=O [compound 14] (cyclo(R[2Nal]RR[Bip][AEEA][2Nal]RN)) | 32 µg/mL (≈ 21.3 µM) | >64 µg/mL | 32 µg/mL (≈ 21.3 µM) | >64 µg/mL | 68% |
| NCCCC[C@@H]1NC(=O)[C@H](Cc2ccccc2)NC(=O)COCCOCCNC(=O)[C@H](Cc2ccccc2)NC(=O)[C@H](CCCCN)NC(=O)[C@H](CCCCN)NC(=O)[C@H](Cc2ccccc2)NC(=O)[C@H](CCCCN)NC(=O)[C@H](CC(N)=O)NC1=O [compound 8] (cyclo(KFKKF[AEEA]FKN)) | >64 µg/mL | >64 µg/mL | >64 µg/mL | >64 µg/mL | 3% |
| NCCCC[C@@H]1NC(=O)[C@H](CCCCN)NC(=O)[C@H](Cc2ccc3ccccc3c2)NC(=O)[C@H](CCCCN)NC(=O)[C@H](CCCCN)NC(=O)[C@H](CC(N)=O)NC(=O)[C@H](Cc2ccc3ccccc3c2)NC(=O)COCCOCCNC(=O)[C@H](Cc2ccc(-c3ccccc3)cc2)NC1=O [compound 1] (cyclo(K[2Nal]KK[Bip][AEEA][2Nal]NK)) | >64 µg/mL | >64 µg/mL | 32 µg/mL (≈ 23 µM) | 32 µg/mL (≈ 23 µM) |  |
| N=C(N)NCCC[C@@H]1NC(=O)[C@H](Cc2ccc3ccccc3c2)NC(=O)[C@H](CCN)NC(=O)[C@H](CC(N)=O)NC(=O)[C@H](CCN)NC(=O)[C@H](Cc2ccc3ccccc3c2)NC(=O)COCCOCCNC(=O)[C@H](Cc2ccccc2)NC(=O)[C@H](CCN)NC1=O [compound 18] (cyclo([Dab][2Nal]R[Dab]F[AEEA][2Nal][Dab]N)) | 64 µg/mL (≈ 50.9 µM) | 64 µg/mL (≈ 50.9 µM) | 16 µg/mL (≈ 12.7 µM) | >64 µg/mL | 30% |
| NCCCC[C@@H]1NC(=O)[C@H](Cc2ccc3ccccc3c2)NC(=O)COCCOCCNC(=O)[C@H](Cc2ccccc2)NC(=O)[C@H](CCCCN)NC(=O)[C@H](CCCCN)NC(=O)[C@H](Cc2ccc3ccccc3c2)NC(=O)[C@H](CCCCN)NC(=O)[C@H](CC(N)=O)NC1=O [compound 6] (cyclo(K[2Nal]KKF[AEEA][2Nal]KN)) | >64 µg/mL | >64 µg/mL | 32 µg/mL (≈ 24.4 µM) | >64 µg/mL | 6% |
| NCCCC[C@@H]1NC(=O)[C@H](Cc2ccccc2)NC(=O)COCCOCCNC(=O)[C@H](Cc2ccc(-c3ccccc3)cc2)NC(=O)[C@H](CCCCN)NC(=O)[C@H](CCCCN)NC(=O)[C@H](Cc2ccc3ccccc3c2)NC(=O)[C@H](CCCCN)NC(=O)[C@H](CC(N)=O)NC1=O [compound 7] (cyclo(K[2Nal]KK[Bip][AEEA]FKN)) | >64 µg/mL | >64 µg/mL | 64 µg/mL (≈ 47.8 µM) | 64 µg/mL (≈ 47.8 µM) | 7% |
| N=C(N)NCCC[C@@H]1NC(=O)[C@H](Cc2ccc3ccccc3c2)NC(=O)[C@H](CCCNC(=N)N)NC(=O)[C@H](CC(N)=O)NC(=O)[C@H](CCN)NC(=O)[C@H](Cc2ccc3ccccc3c2)NC(=O)COCCOCCNC(=O)[C@H](Cc2ccccc2)NC(=O)[C@H](CCN)NC1=O [compound 16] (cyclo(R[2Nal]R[Dab]F[AEEA][2Nal][Dab]N)) |  | 64 µg/mL (≈ 48.7 µM) | 16 µg/mL (≈ 12.2 µM) | 64 µg/mL (≈ 48.7 µM) | 16% |
| NCCCC[C@@H]1NC(=O)[C@H](Cc2ccc3ccccc3c2)NC(=O)COCCOCCNC(=O)[C@H](Cc2ccc(-c3ccccc3)cc2)NC(=O)[C@H](CCCCN)NC(=O)[C@H](CCCCN)NC(=O)[C@H](Cc2ccc3ccccc3c2)NC(=O)[C@H](CC(N)=O)NC(=O)[C@H](CCCCN)NC1=O [compound 4] (cyclo(N[2Nal]KK[Bip][AEEA][2Nal]KK)) | >64 µg/mL | >64 µg/mL | 64 µg/mL (≈ 46.1 µM) | 64 µg/mL (≈ 46.1 µM) |  |
| NCCCC[C@@H]1NC(=O)[C@H](Cc2ccc3ccccc3c2)NC(=O)COCCOCCNC(=O)[C@H](Cc2ccc(-c3ccccc3)cc2)NC(=O)[C@H](CC(N)=O)NC(=O)[C@H](CCCCN)NC(=O)[C@H](Cc2ccc3ccccc3c2)NC(=O)[C@H](CCCCN)NC(=O)[C@H](CCCCN)NC1=O [compound 2] (cyclo(K[2Nal]KN[Bip][AEEA][2Nal]KK)) | >64 µg/mL | >64 µg/mL | 64 µg/mL (≈ 46.1 µM) | >64 µg/mL |  |
| NCCCC[C@@H]1NC(=O)[C@H](Cc2ccc3ccccc3c2)NC(=O)COCCOCCNC(=O)[C@H](Cc2ccc(-c3ccccc3)cc2)NC(=O)[C@H](CCCCN)NC(=O)[C@H](CC(N)=O)NC(=O)[C@H](Cc2ccc3ccccc3c2)NC(=O)[C@H](CCCCN)NC(=O)[C@H](CCCCN)NC1=O [compound 3] (cyclo(K[2Nal]NK[Bip][AEEA][2Nal]KK)) | 64 µg/mL (≈ 46.1 µM) | >64 µg/mL | 64 µg/mL (≈ 46.1 µM) | 64 µg/mL (≈ 46.1 µM) |  |
| N=C(N)NCCC[C@@H]1NC(=O)[C@H](CC(N)=O)NC(=O)[C@H](CCN)NC(=O)[C@H](Cc2ccc3ccccc3c2)NC(=O)COCCOCCNC(=O)[C@H](Cc2ccccc2)NC(=O)[C@H](CCN)NC(=O)[C@H](CCN)NC(=O)[C@H](Cc2ccc3ccccc3c2)NC1=O [compound 17] (cyclo(R[2Nal][Dab][Dab]F[AEEA][2Nal][Dab]N)) | 64 µg/mL (≈ 50.9 µM) | 64 µg/mL (≈ 50.9 µM) | 16 µg/mL (≈ 12.7 µM) | >64 µg/mL | 3% |
| N=C(N)NCCC[C@@H]1NC(=O)[C@H](Cc2ccc3ccccc3c2)NC(=O)[C@H](CCCNC(=N)N)NC(=O)[C@H](CC(N)=O)NC(=O)[C@H](CCN)NC(=O)[C@H](Cc2ccc3ccccc3c2)NC(=O)COCCOCCNC(=O)[C@H](Cc2ccc(-c3ccccc3)cc2)NC(=O)[C@H](CCN)NC1=O [compound 15] (cyclo(R[2Nal]R[Dab][Bip][AEEA][2Nal][Dab]N)) | 8 µg/mL (≈ 5.76 µM) | 64 µg/mL (≈ 46.1 µM) | 16 µg/mL (≈ 11.5 µM) | >64 µg/mL |  |
